Test results taken from patent publication US5025036A, “Catechol carboxylic acids” (Hoffmann-La Roche Inc., priority 1989, dated 1991).

Columns and labels:
[1] = test system: myeloperoxidase accumulation (acetic acid-induced colitis); test: Acetic Acid-Induced Colitis in Rats, In Vivo; parameters: species or system male rats (Sprague-Dawley)
Description: The rat acetic acid-induced colitis bioassay has been described by J. E. Krawisz, et al. in Amer. J. Proc. Gastro. Col. Rec. Surg. 31: 11-18 (1980), and by P. Sharon and W. F. Stenson in Gastroenterolgy 88: 55-63 (1985) and 86: 453-460 (1984). Acetic acid-induced colitis is characterized by the movement of inflammatory cells into the colon, with the number of such cells in the mucosa being measured by the activity of myeloperoxidase, a marker enzyme for these cells. Positive desirable activity is indicated by a reduction in the high levels of myeloperoxidase caused by acetic acid. Male rats (Sprague-Dawley), weighing 150 to 300 g, were pretreated twice daily for two days with either the vehicle (water, or dimethylsulfoxide) or the test inhibitor compound suspended in water or dissolved in dimethylsulfoxide and orally administered. On the third day, the animals were dosed the same as on the previous two days, anesthetized with metofane, and 2 ml of 2.5% acetic acid was injected by syringe into the colonic lumen, followed immediately by 3 ml of air and a rinse consisting of 3 ml of phosphate-buffered saline (the acetic acid is present in the lumen for a sufficient period to cause inflammation without producing severe necrosis or irreversible damage). The animals were administered a second dose of the test compound in the same amount about 16 hours later. 24 hours after the acetic acid treatment, the animals were sacrificed, the colonic mucosa was surgically removed and homogenized in an aqueous buffer at pH 6 with a Tissumizer or similar device and myeloperoxidase was measured in the homogenate using o-phenylenediamine as a chromagen, as described by A. Voller, D. E. Bidwell and A. Bartlett in The Enzyme Linked Immunosorbent Assay (ELISA), Zoological Soc., London, 1979, pages 29-30. Control animals were pretreated with the vehicle and saline in place of acetic acid.

[2] = biological target: T1, Δ^5 -lipoxygenase from rat basophilic leukemia (RBL-1) cells (Rattus norvegicus, UniProt P12527); test: In vitro test for Δ^5-lipoxygenase inhibitors (5-HETE radioimmunoassay); assay type: biochemical; settings: for IC50: RBL-1 5-LO, 5-HETE formation, read-out: Inhib. of Δ^5 Lipoxygenase IC50
T1 construct: The isolated cytosolic fraction was stored in liquid N2 for up to 8 weeks without loss of 5-LO enzyme activity; endogenous in cells; host or cells: RBL-1 cells (ATCC CRL 1378), 113,000×g supernatant (cytosol)
T1 sequence (P12527 1-673): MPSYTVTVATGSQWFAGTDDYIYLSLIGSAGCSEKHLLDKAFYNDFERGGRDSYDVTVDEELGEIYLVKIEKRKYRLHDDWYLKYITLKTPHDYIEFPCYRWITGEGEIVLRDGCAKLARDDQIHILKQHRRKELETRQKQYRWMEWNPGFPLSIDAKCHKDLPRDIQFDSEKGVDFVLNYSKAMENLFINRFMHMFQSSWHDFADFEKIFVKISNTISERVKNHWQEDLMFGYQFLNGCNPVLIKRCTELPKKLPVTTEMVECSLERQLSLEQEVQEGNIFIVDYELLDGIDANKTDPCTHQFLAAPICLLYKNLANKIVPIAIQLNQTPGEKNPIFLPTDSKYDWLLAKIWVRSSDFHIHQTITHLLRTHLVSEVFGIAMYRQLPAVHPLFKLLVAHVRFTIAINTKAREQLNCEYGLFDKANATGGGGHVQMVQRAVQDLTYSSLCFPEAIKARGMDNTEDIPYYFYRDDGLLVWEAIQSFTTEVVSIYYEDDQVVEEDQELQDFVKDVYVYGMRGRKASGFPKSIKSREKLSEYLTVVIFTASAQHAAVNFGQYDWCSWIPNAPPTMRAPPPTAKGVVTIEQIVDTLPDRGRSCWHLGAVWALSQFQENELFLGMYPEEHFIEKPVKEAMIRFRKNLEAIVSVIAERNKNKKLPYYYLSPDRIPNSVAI
Experimental: RBL-1 cells (CRL 1378) were obtained from the American Type Culture Collection, Rockville, MD. DMEM and glutamine were purchased from Flow Labs, McLean, Va. FBS (Gibco, Grand Island, N.Y.) was heat-inactivated for 1 hour at 56° C. Reagents for protein determinations were obtained from Biorad, Rockville Center, N.Y. Arachidonic acid (approx. 99%), ATP (disodium salt), BHT, dextran (clinical grade), tetrasodium EDTA, gelatin, gentamycin sulfate solution, reduced glutathione, 1 M HEPES buffer, indomethacin, NaCl, reduced NADPH, Trizma 7.2, and Trizma 8.5 were purchased from Sigma Chemical, St. Louis, Mo. CaCL2 dihydrate, Norit A charcoal, and citric acid monohydrate were obtained from Fisher Scientific, Pittsburgh, Pa. […] A synthetic 5-HETE standard was supplied by Dr. M. Rosenberger, Dept. of Medicinal Chemistry, Hoffmann La-Roche, Nutley, N.J.; [see Corey, E. J., and Hashimoto, S. (1981) Tet. […] Approximately 7-9 days after thawing, RBL-1 cells growing in log phase were seeded at a density of 7500 viable cells/ml in a closed 89-liter spinner flask. […] RBL-1 cells were harvested by centrifugation at 4° C. at 1500×g for 10 minutes and were washed 3 times with ice cold 0.05M tris-hCl, pH 7.2, tetrasodium EDTA (buffer 1). The cells were washed last in 0.05M Tris-HCl containing 14 μM indomethacin, 1 mM glutathione, 1.5 mM NaCl, and 1 mM tetrasodium EDTA (buffer 2), resuspended at a density of 5×108'/ml approximately 10 ml) and disrupted manually at 4° C. using a 40 ml Dounce (type A pestle) homogenizer. After 5 minutes of homogenization, 95% cell lysis was confirmed by phase contrast microscopy. The broken cells were diluted 1:2 with buffer 2 and centrifuged at 12,380×g for 10 minutes at 4° C. to pellet cellular debris and granules. The 12,380×g supernatant was centrifuged at 113,000×g for 60 minutes to pellet microsomes. The high-speed supernatant (5.9±0.48 mg/ml protein) was frozen immediately in 1 ml aliquots using a dry ice/acetone bath. The isolated cytosolic fraction was stored in liquid N2 for up to 8 weeks without loss of 5-LO enzyme activity. Compounds were dissolved at 25 mM concentration in DMSO, then diluted to final concentrations using 95% ethanol. For a typical enzyme assay, the partially purified 5-LO preparation was preincubated with drug or vehicle for 10 minutes at 30° C. The assay tubes were then transferred at a 37° C. water bath where they received arachidonic acid (8.25 μM final concentration) to initiate 5-LO activity. […] The samples were immediately cooled on ice and neutralized by dilution with 0.05M Tris-HCl, pH 8.5, which contained 25 mg/1 BHT. A boiled cytosol control was placed at the end of each assay to emasure non-enzymatic oxidation of arachidonic acid. […] Under the assay conditions described, the 5-LO catalyzed the conversion of arachidonic acid to 5-HPETE which, as a consequence of peroxidase activity, was reduced to 5-HETE. A specific radioimmunoassay was employed to quantitate the amount (pmoles) of 5-HETE formed during the enzyme reaction. To prepare the immunogen, Dr. M. Rosenberger (Dept. of Medicinal Chemistry) converted the racemic 5-HETE lactone (Corey, E. J., and Hashimoto, S. (1981) Tet. Letters, 22, 299-302) to its hydrazine derivative. The hydrazide was conjugated to thiolated Keyhole Limpet Hemocyanin (Young, […]., and Rokach, J. (1982) Prostaglandins 23, 603-613) using N-ethyl-maleimide as previously described for LTB4 by (Young, R., N, Zomboni, R. and Rokach, J. 91983) Prostaglandins, 26, 605-613). New Zealand White rabbits received multiple intradermal injections on their backs with […] conjugate emulsified in complete Freund's adjuvant. A schedule of injections reported by Salmon (Salmon, J. A. (1978) Prostaglandins, 15, 383-397) was followed. After the monthly i.p. booster injections, blood was obtained from the marginal ear vein 5-7 days later and assessed for antibody titer. […]

Carrageenan pleurisy = test: Carrageenan Pleurisy Test (In Vivo); parameters: species or system male Lewis rats; settings: Rattus norvegicus, po, read-out: Rat Carrageenan Pleurisy % Inhib. of Exudate Volume
Experimental: The animals utilized in these studies were male Lewis rats (Charles River Breeding Laboratories) weighing between 230-250 g. […] At 5 or 24 hours after CG injection, the rats were killed by decapitation, exsanguinated, and the pleural cavity exposed by cutting the ribs on both sides of the sternum. The exudate fluid was removed from the pleural cavity with disposable plastic pipettes and its volume quantitated. The pleural cavity was then washed once with phosphate buffered saline containing fetal bovine serum (1:1) and the washings combined with the exudate. The total number of cells in the pleural cavity was quantitated using a Coulter Counter (Model ZM) adjusted to exclude any contaminating RBC. (Published in "Plant Flavonoids in Biology & Medicine: Biochemical, Pharmacological and Structure-Activity Relationships" p. 231-242 (1986) Alan R. Liss, Inc.)

For `CCCc1c(OCCCCCc2ccc(O)c(O)c2)ccc(C(C)=O)c1O` [1-[4-[5-(3,4-Dihydroxyphenyl)pentyloxy]-2-hydroxy-3-propylphenyl]-1-ethanone], the “Rat Acetic Acid Colitis Model % Inhib. of Myeloperoxidase Accumulation” value ([1]; 10 mg/kg p.o) was 52 ± 6%.
For `CCCc1c(OCCCCCCc2cccc(O)c2O)ccc(C(C)=O)c1O` [1-[4-[6-(2,3-Dihydroxyphenyl)hexyloxy]], the “Rat Acetic Acid Colitis Model % Inhib. of Myeloperoxidase Accumulation” value ([1]; 10 mg/kg p.o) was 51 ± 5%.
`CCCc1c(OCCCCCCc2cccc(O)c2O)ccc(C(=O)O)c1OC(C)=O` [2-Acetyloxy-4-[6-(2,3-dihydroxyphenyl)hexyloxy]-3-propylbenzoic acid] was tested, and the IC50 [2] was 0.19 µM and the inhibition in vivo at 100 mg/kg (Carrageenan pleurisy; at 100 mg/kg p.o) was 42%.
`Nc1cc(C(=O)O)ccc1OCCCCCCc1cccc(O)c1O` [3-Amino-4-[6-(2,3-dihydroxyphenyl)hexyloxy]benzoic acid] was tested, and the “Rat Acetic Acid Colitis Model % Inhib. of Myeloperoxidase Accumulation” value ([1]; 1 mg/kg p.o) was 55 ± 7%.
`CCCc1c(OCCc2ccc(O)c(O)c2)ccc(C(=O)O)c1O` [4 [2 (3,4 Dihydroxyphenyl)ethoxy]-2 hydroxy 3 propylbenzoic acid] was tested, and the “Rat Acetic Acid Colitis Model % Inhib. of Myeloperoxidase Accumulation” value ([1]; 10 mg/kg p.o) was 56 ± 6%.
With `CCCc1c(OCCCc2cccc(O)c2O)ccc(C(=O)O)c1O` [4-[3-(2,3-Dihydroxyphenyl)propoxy]-2-hydroxy-3-propylbenzoic acid] the “Rat Acetic Acid Colitis Model % Inhib. of Myeloperoxidase Accumulation” value ([1]; 10 mg/kg p.o) was 54 ± 5%.
`CCCc1c(OCCCCCc2c(O)c(O)c(Cl)c(Cl)c2Cl)ccc(C(=O)O)c1O` [4-[5-(2,3,4-Trichloro-5,6-dihydroxyphenyl)pentyloxy]-2-hydroxy-3-propylbenzoic acid] was tested, and the “Rat Acetic Acid Colitis Model % Inhib. of Myeloperoxidase Accumulation” value ([1]; 1 mg/kg p.o) was 115 ± 21%.
`CCCc1c(OCCCCCc2c(O)c(O)cc(Cl)c2Cl)ccc(C(=O)O)c1O` [4-[5-(2,3-Dichloro-5,6-dihydroxyphenyl)pentyloxy]-2-hydroxy-3-propylbenzoicacid] was tested, and the “Rat Acetic Acid Colitis Model % Inhib. of Myeloperoxidase Accumulation” value ([1]; 1 mg/kg p.o) was 73 ± 5%.
For `CCCc1c(OCCCCCc2c(Cl)ccc(O)c2O)ccc(C(=O)O)c1O` [4-[5-(2-Chloro-5,6-dihydroxyphenyl)pentyloxy]-2-hydroxy-3-propylbenzoic acid], the “Rat Acetic Acid Colitis Model % Inhib. of Myeloperoxidase Accumulation” value ([1]; 3 mg/kg p.o) was 54 ± 9%.
In the case of `CCCc1c(OCCCCCCc2cccc(OC(C)=O)c2OC(C)=O)ccc(C(=O)O)c1O` [4-[6-[2,3-Bis(acetyloxy)phenyl]hexyloxy]-2-hydroxy-3-propylbenzoic acid], the IC50 [2] is reported as 0.15 µM and the inhibition in vivo at 75 mg/kg (Carrageenan pleurisy; at 75 mg/kg p.o) is reported as 43%.
For `CCCc1c(OCCCCCC(=O)c2cc(O)c(O)cc2F)ccc(C(=O)O)c1O` [4-[[6-(2-Fluoro-4,5-dihydroxyphenyl)-6-oxohexyl]oxy]-2-hydroxy-3-propylbenzoic acid], the “Rat Acetic Acid Colitis Model % Inhib. of Myeloperoxidase Accumulation” value ([1]; 10 mg/kg p.o) was 40 ± 5%.
`CCCc1c(OCCCCCCc2cc(C)c(O)c(O)c2C)ccc(C(=O)O)c1O` [4-[[6-(3,4-Dihydroxy-2,5-dimethylphenyl)hexyloxy]-2-hydroxy-3-propylbenzoicacid] was tested, and the “Rat Acetic Acid Colitis Model % Inhib. of Myeloperoxidase Accumulation” value ([1]; 3 mg/kg p.o) was 37 ± 6% and the “Rat Acetic Acid Colitis Model % Inhib. of Myeloperoxidase Accumulation” value ([1]; 10 mg/kg p.o) was 85 ± 13%.
With `CCCc1c(OCCCCCC(=O)c2ccc(O)c(O)c2)ccc(C(=O)O)c1O` [4-[[6-(3,4-Dihydroxyphenyl)-6-oxohexyl]oxy]-2-hydroxy-3-propylbenzoic acid] the inhibition at 1 µM ([2]; read-out: Inhib. of Δ^5 Lipoxygenase, % inhibition at 1 μM) was 51%.
